Results published in article PMC6437697 (Journal of Medicinal Chemistry, 2019).

Legend:
Experiment in all cases: KINOMEscan
Assay type in all cases: binding
Conditions in all cases: read-out: % control activity remaining
[1] = biological target: T1, CLK4 (Homo sapiens, UniProt Q9HAZ1)
T1 construct: purchased Eurofins DiscoverX KINOMEscan

[2] = biological target: T2, FER (Homo sapiens, UniProt P16591)
T2 construct: purchased Eurofins DiscoverX KINOMEscan

[3] = biological target: T3, CDK5 (Homo sapiens, UniProt Q00535)
T3 construct: purchased Eurofins DiscoverX KINOMEscan
T3 sequence (Q00535 whole entry): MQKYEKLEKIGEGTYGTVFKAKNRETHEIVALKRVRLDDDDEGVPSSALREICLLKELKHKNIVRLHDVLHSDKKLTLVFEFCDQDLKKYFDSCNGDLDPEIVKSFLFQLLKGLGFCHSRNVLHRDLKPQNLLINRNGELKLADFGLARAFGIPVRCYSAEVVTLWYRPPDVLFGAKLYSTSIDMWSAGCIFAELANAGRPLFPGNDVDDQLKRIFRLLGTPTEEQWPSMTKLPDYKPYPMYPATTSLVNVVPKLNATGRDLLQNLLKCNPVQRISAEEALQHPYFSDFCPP

[4] = biological target: T4, RPS6KA4(Kin.Dom.1-N-terminal) (Homo sapiens, UniProt O75676)
T4 construct: RPS6KA4(Kin.Dom.1-N-terminal); purchased Eurofins DiscoverX KINOMEscan
T4 sequence (O75676 33-301 limits assumed): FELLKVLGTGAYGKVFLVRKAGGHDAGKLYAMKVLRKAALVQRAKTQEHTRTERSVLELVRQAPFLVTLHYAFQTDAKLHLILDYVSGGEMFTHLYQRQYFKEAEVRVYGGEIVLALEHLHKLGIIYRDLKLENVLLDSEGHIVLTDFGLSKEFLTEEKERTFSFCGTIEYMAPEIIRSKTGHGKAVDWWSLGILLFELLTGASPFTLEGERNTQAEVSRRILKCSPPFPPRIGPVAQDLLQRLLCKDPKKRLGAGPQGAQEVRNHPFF

[5] = biological target: T5, FLT4 (Homo sapiens, UniProt P35916)
T5 construct: purchased Eurofins DiscoverX KINOMEscan
T5 sequence (P35916 25-1363): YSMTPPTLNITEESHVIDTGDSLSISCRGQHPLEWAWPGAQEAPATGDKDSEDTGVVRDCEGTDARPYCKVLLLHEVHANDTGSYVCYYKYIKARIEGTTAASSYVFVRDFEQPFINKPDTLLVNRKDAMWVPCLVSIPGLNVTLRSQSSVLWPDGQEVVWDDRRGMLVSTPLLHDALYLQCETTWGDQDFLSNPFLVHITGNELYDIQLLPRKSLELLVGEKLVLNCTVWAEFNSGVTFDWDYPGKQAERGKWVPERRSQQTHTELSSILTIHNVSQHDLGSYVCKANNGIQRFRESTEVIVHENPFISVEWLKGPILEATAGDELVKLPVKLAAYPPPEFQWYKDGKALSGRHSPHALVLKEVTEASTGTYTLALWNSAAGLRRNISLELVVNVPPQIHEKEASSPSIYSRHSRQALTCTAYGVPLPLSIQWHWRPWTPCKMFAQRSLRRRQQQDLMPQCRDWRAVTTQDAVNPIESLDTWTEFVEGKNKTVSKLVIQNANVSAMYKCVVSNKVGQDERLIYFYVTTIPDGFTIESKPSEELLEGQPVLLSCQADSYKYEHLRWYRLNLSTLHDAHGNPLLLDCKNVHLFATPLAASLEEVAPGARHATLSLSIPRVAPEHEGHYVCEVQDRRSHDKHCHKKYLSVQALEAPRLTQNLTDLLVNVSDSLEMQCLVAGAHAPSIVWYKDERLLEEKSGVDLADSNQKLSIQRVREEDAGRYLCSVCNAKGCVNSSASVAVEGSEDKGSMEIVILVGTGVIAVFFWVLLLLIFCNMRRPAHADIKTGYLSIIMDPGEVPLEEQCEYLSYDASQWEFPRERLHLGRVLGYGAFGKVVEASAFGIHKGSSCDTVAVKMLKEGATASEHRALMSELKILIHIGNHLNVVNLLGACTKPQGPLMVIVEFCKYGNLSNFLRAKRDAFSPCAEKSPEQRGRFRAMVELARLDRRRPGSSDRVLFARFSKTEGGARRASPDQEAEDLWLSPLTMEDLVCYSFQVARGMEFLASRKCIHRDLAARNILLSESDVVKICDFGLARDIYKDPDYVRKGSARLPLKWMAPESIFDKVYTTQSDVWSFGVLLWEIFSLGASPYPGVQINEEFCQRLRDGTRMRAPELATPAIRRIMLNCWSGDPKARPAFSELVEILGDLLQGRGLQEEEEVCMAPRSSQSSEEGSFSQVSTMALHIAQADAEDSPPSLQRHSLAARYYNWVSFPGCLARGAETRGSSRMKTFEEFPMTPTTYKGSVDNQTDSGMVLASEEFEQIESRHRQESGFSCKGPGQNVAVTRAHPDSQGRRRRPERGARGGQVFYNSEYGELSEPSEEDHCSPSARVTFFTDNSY

[6] = biological target: T6, MYO3A (Homo sapiens, UniProt Q8NEV4)
T6 construct: purchased Eurofins DiscoverX KINOMEscan

[7] = biological target: T7, CAMKK2 (Homo sapiens, UniProt Q96RR4)
T7 construct: purchased Eurofins DiscoverX KINOMEscan
T7 sequence (Q96RR4 whole entry): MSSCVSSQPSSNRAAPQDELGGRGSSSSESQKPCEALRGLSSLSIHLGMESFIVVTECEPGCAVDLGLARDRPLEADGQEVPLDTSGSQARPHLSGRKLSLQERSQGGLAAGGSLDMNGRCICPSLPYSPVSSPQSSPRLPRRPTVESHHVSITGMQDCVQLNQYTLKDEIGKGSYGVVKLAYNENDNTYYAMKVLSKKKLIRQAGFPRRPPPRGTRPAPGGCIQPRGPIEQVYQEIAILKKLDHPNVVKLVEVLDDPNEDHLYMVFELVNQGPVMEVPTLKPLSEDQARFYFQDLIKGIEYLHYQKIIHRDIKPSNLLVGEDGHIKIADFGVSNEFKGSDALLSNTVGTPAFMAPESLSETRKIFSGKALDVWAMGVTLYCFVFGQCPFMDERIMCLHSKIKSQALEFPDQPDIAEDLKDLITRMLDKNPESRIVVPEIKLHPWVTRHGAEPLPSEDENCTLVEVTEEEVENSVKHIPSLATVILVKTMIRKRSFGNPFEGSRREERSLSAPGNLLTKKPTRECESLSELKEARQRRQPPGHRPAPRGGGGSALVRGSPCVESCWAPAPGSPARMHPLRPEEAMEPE

[8] = biological target: T8, EIF2AK1 (Homo sapiens, UniProt Q9BQI3)
T8 construct: purchased Eurofins DiscoverX KINOMEscan
T8 sequence (Q9BQI3 whole entry): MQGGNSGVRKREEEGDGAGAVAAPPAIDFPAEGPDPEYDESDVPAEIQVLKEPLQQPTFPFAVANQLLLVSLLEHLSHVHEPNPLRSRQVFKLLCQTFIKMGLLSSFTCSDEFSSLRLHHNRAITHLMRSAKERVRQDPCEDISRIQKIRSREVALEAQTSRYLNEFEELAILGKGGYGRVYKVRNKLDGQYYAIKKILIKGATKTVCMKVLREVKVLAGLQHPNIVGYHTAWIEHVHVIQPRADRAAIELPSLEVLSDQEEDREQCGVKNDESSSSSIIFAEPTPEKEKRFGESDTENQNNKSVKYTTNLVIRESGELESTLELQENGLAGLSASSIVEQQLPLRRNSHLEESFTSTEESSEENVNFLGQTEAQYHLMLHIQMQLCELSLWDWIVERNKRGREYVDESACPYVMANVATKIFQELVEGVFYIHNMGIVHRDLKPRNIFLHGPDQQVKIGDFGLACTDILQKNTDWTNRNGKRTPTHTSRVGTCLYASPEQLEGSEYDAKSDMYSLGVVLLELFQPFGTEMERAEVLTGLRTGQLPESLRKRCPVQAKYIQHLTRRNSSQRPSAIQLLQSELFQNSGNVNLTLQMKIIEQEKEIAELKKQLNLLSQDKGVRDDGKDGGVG

[9] = biological target: T9, PRKX (Homo sapiens, UniProt P51817)
T9 construct: purchased Eurofins DiscoverX KINOMEscan
T9 sequence (P51817 1-358): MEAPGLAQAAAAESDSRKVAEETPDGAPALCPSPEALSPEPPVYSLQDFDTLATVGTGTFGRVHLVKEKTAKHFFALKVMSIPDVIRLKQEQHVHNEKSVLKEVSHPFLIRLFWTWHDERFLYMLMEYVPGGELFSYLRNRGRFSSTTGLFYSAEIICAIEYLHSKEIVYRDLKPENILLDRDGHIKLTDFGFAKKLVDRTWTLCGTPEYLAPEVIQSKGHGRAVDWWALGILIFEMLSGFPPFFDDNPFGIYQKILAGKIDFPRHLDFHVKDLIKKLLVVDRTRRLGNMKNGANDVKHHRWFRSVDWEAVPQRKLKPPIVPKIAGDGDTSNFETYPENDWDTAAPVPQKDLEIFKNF

[10] = biological target: T10, BMPR2 (Homo sapiens, UniProt Q13873)
T10 construct: purchased Eurofins DiscoverX KINOMEscan
T10 sequence (Q13873 27-1038): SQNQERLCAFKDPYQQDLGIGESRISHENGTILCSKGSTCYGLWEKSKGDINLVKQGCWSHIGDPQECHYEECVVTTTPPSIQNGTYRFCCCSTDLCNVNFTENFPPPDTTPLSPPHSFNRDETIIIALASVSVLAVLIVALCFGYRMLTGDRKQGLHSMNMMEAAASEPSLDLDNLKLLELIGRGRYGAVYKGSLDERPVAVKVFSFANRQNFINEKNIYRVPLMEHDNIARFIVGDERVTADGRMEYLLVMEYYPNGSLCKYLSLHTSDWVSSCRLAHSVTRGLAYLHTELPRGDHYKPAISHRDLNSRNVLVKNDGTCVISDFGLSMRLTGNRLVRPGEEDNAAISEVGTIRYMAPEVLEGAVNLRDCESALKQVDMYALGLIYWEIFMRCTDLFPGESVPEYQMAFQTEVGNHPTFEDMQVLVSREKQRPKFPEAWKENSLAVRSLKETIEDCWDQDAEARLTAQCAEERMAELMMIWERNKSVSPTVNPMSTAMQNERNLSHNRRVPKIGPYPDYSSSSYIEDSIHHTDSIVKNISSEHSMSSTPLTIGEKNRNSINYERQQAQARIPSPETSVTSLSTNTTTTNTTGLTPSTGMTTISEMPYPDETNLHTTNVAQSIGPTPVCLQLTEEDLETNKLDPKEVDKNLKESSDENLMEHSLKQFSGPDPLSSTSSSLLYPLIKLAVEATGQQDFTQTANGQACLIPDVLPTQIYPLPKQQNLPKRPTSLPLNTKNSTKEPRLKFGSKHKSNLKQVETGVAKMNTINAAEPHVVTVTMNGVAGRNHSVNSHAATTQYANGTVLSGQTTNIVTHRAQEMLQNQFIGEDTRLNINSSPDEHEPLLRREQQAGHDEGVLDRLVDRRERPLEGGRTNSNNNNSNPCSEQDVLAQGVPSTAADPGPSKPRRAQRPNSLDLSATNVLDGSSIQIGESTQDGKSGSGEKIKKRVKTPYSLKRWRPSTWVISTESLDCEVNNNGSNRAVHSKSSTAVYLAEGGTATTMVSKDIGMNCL

[11] = biological target: T11, WEE2 (Homo sapiens, UniProt P0C1S8)
T11 construct: purchased Eurofins DiscoverX KINOMEscan
T11 sequence (P0C1S8 whole entry): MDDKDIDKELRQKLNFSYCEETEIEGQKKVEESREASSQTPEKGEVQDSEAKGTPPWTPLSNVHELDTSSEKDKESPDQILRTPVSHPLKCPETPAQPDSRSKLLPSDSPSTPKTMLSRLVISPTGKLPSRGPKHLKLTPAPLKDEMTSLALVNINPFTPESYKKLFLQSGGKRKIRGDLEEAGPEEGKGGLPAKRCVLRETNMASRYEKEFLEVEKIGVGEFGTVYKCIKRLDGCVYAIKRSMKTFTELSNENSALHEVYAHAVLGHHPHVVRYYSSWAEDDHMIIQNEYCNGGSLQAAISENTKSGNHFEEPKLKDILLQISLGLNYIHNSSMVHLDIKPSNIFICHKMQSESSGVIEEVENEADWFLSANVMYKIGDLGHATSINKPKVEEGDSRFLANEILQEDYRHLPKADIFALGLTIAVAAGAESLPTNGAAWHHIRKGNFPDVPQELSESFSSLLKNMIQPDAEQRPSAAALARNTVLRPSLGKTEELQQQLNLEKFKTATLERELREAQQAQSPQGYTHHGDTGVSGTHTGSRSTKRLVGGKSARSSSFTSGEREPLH

[12] = biological target: T12, DRAK2 (Homo sapiens, UniProt O94768)
T12 construct: purchased Eurofins DiscoverX KINOMEscan
T12 sequence (O94768 1-372): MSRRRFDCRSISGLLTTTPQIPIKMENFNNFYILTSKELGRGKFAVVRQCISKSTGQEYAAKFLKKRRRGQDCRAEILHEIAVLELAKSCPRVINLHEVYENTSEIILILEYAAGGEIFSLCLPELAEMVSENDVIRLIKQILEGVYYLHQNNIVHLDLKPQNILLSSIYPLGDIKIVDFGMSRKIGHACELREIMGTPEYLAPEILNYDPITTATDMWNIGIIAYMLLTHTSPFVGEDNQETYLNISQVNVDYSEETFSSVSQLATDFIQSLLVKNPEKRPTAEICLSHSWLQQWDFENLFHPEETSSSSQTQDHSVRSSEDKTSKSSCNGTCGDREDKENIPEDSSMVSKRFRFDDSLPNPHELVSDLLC

T1 sequence (Q9HAZ1 whole entry): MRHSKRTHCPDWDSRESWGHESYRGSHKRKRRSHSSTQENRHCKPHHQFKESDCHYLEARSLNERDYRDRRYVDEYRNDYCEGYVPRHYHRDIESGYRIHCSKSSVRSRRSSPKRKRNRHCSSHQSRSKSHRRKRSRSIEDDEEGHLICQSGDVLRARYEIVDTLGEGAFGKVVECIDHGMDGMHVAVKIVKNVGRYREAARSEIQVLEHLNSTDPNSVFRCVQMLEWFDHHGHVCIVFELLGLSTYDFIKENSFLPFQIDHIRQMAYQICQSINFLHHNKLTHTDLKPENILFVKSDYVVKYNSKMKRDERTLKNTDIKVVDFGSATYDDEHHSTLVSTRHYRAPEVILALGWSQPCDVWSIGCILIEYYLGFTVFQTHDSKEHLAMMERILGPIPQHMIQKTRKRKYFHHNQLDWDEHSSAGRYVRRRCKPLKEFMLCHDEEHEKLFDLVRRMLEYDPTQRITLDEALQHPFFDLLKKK
T2 sequence (P16591 whole entry): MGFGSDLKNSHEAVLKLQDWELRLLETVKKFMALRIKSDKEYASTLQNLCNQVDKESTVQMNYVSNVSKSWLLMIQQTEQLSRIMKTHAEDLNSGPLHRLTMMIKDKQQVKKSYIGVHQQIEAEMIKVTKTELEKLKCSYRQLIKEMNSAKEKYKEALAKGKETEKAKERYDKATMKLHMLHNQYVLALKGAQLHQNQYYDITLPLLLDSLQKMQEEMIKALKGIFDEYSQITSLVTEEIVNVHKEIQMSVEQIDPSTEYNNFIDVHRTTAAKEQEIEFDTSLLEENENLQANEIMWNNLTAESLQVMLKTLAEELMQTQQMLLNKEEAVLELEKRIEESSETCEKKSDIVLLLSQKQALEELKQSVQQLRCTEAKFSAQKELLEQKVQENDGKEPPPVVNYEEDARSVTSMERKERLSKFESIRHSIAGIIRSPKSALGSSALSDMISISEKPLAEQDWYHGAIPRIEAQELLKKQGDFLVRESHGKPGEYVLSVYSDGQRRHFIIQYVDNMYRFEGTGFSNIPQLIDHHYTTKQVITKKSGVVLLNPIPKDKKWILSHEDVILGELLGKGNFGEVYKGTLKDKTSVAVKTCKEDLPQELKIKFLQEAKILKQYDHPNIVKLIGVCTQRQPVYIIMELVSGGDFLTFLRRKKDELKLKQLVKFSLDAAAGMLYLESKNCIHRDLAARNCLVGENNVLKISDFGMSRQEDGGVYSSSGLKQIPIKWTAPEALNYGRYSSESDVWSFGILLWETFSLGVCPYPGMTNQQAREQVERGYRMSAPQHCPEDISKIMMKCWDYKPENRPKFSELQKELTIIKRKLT

Row | SMILES | remaining binding at 1 µM [1] | remaining binding at 1 µM [2] | remaining binding at 1 µM [3] | remaining binding at 1 µM [4] | remaining binding at 1 µM [5] | remaining binding at 1 µM [6] | remaining binding at 1 µM [7] | remaining binding at 1 µM [8] | remaining binding at 1 µM [9] | remaining binding at 1 µM [10] | remaining binding at 1 µM [11] | remaining binding at 1 µM [12]
1 | Clc1cc(NCC2CC2)c2ncc(-c3ccc4[nH]ncc4c3)n2n1 [compound 2, 6-Chloro-N-(cyclopropylmethyl)-3-(1H-indazol-5-yl)imidazo[1,2-b]pyridazin-8-amine] | 1.5% | 98% | 100% | 100% | 95% | 96% | 99% | 100% | 91% | 96% | 94% | 93%
2 | O=C(CN1CCOCC1)N[C@H]1CC[C@H](Nc2cc(Cl)nn3c(-c4ccc5[nH]ncc5c4)cnc23)CC1 [compound 26] | 2.1% | 100% | 92% | 99% | 83% | 96% | 42% | 78% | 80% | 100% | 87% | 61%
3 | CN1CCC(CNc2cc(Cl)nn3c(-c4cc5nc(Nc6ccccc6)[nH]c5cc4F)cnc23)CC1 [compound 31, 6-Chloro-3-(6-fluoro-2-(phenylamino)-1H-benzo[d]imidazol-5-yl)-N-((1-methylpiperidin-4-yl)methyl)imidazo[1,2-b]pyridazin-8-amine] | 20% | 82% | 99% | 91% | 100% | 97% | 100% | 78% | 100% | 91% | 97% | 92%
